In patent US20150148235A1, “HERBICIDE-RESISTANT SUNFLOWER PLANTS WITH MULTIPLE HERBICIDE RESISTANT ALLELES OF AHASL1 AND METHODS OF USE” (NIDERA S.A., priority 2013, published 2015):
Read-outs that look alike come from different tables or passages of the source.

How the values were obtained:
[1] = test system: AHAS enzyme, A122T Heterozygous sunflower; assay: AHAS enzyme activity assay, leaf extract; format: biochemical, Helianthus annuus; details: A122T heterozygous hybrid (Set 2)
Procedure: (§1) Twelve greenhouse grown sunflower plants from each of the lines depicted in Table 21 were bulked and subjected to an AHAS enzyme activity assay via the method of Singh et al. (1988) Anal. Biochem. 171:173-179. Each activity assay was repeated twice. Due to the large number of samples, the experiment was split into two sets (Table 21).
(§2) Young, actively growing leaves, from four week old plantlets, were ground in a mortar and pestle with liquid N2 and extracted with a buffer composed of 100 mM Pyruvate, 200 mM KH2PO4, 20 mM MgCl2, 2 mM thiamine pyrophosphate and […]. Plant extracts were then spun through a 10 mL Zeba TM desalt spin column (Pierce #89893) as per the manufacturer's recommendation. The inhibition assay was performed as described by Singh et al. (1988) Anal. Biochem. 171:173-179. Assays were conducted in a 96-well format. Fifty μl of inhibitor was added to each well containing 50 μl of soluble protein extract to give final concentrations of 0.78, 1.56, 3.125, 6.25, 12.5, 25, 50 and 100 μM imazamox or 0.78, 1.56, 3.125, 6.25, 12.5, 25, 50 and 100 μM imazapyr. Zero herbicide controls were also included for each line. Reactions were processed as outlined by Singh et al. (1988) Anal. Biochem. 171:173-179. Absorbance was measured at 530 nm. AHAS activity, expressed as the mean of the absorbance values for each treatment, was presented as a percentage of the mean of the zero-herbicide controls.

[2] = test system: AHAS enzyme, WT sunflower line B7; assay: AHAS enzyme activity assay, leaf extract; format: biochemical, Helianthus annuus; details: 100 μM
Procedure: as §1, §2

[3] = test system: sunflower hybrids H1, H2, H3, H5, H6; details: in vivo
[4] = test system: sunflower hybrids H1, H2, H3, H5, H6; assay: Field trial Venado Tuerto 2006, imazapyr applied at V8 or R1 stage, Phytotoxicity Index, Example 4; details: for Mean Phytotoxicity Index (scale 0-50): H5 (L3 × WT, 122/Wild type), 160 g ai/ha applied at R1

For `COCc1cnc(C2=NC(C)(C(C)C)C(=O)N2)c(C(=O)O)c1` (centres unmarked) [imazamox], the AHAS activity ([1]; 50 μM) was 30%, the AHAS activity ([1]; 100 μM) was 30% and the AHAS activity ([2]; WT line B7, Set 1) was 17 % relative to the untreated co. For the same compound, the AHAS activity ([2]; WT line B7, Set 2) was 11 % relative to the untreated co.

In the case of `CC(C)C1(C)N=C(c2ncccc2C(=O)O)NC1=O` (centres unmarked) [imazapyr], the “Phytotoxicity Index (scale 0-50)” value [3] is reported as “greater than 35”, the “Mean Phytotoxicity Index (scale 0-50)” value ([4]; 14 DAT) is reported as 11.7 and the “Mean Phytotoxicity Index (scale 0-50)” value ([4]; 21 DAT) is reported as 23.3. For the same compound, the “Phytotoxicity Index (scale 0-50)” value ([4]; hybrids with at least one A122T allele (A122T/A122T, A122T/A205V, A122/WT), 160 g ai/ha at R1, 14 DAT) was “less than 11.7”.
